The results in this text go back to US20090312349A1, “ANTI-INFLAMMATORY MEDICAMENTS” (priority 2004, published 2009).

Type in all cases: biochemical
The target in assay [1] is T1, Abl kinase (Homo sapiens, UniProt P00519).
T1 sequence (P00519 229-512): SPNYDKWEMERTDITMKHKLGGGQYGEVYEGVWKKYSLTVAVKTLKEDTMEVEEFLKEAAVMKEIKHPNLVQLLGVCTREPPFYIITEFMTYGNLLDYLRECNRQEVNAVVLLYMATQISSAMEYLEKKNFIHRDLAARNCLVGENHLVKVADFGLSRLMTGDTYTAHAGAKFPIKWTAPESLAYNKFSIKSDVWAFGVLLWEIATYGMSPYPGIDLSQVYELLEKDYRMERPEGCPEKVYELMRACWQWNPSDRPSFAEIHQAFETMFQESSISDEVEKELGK
The experiment in a line: Abl kinase assay A1. The method, then: (§1) IC50 values were calculated from a series of percent inhibition values determined at a range of inhibitor concentrations using software routines as implemented in the GraphPad Prism software package.

Assay [2] concerns the target B-Raf(V599E) kinase (Homo sapiens, UniProt P15056, V600E). The experiment in a line: B-Raf(V599E) kinase assay B1. Particulars: for IC50: Method B1, construct 1. The method, then:
The test compounds were incubated with the reaction mixture at 30° C. for 2 h. […] The reaction rate was calculated using the 1.5 h to 2.5 h time frame. […] IC50 values were calculated from a series of percent inhibition values determined at a range of inhibitor concentrations using software routines as implemented in the GraphPad Prism software package.

For assay [3], the target named is KDR kinase (Homo sapiens, UniProt P35968, DEL940-989/E990V). Briefly: KDR kinase assay K1. The protocol: as §1
Assay [4] addresses T2, phospho p-38 alpha kinase (Homo sapiens, UniProt Q16539).
T2 construct: purchased Panvera
The experiment in a line: P-38 alpha kinase assay (spectrophotometric, pyruvate kinase/lactate dehydrogenase coupled). Particulars: Table 5; for IC50: assay not named, read-out: uM.

Assay [5] has as its target phosphorylated p-38-alpha kinase (Homo sapiens, UniProt Q16539). Briefly: P-38 alpha kinase assay P1. Particulars: Method P1; 2 h pre-incubation before ATP.
Where [6] appears, read: read-out: Results, % @ concentration μM, Method A1, @ 10 μM.
Setting [7] is: read-out: Results, % @ concentration μM, Method K1, @ 10 μM.
[8] abbreviates: read-out: Results, % @ concentration μM.
Where [9] appears, read: Method A1, read-out: Results, μM (IC50).

Read-outs that look alike come from different tables or passages of the source.

T2 sequence (Q16539 whole entry): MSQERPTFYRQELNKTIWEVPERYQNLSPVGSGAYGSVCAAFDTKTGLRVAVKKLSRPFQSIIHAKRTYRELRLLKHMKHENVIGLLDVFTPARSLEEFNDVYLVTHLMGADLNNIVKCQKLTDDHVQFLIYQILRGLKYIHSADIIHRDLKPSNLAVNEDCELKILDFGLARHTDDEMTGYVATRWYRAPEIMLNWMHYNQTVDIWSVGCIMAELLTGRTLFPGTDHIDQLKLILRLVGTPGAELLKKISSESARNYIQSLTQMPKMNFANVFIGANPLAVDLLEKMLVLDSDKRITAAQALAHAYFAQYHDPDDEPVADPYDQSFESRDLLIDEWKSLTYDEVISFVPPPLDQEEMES
Chain of B-Raf(V599E) kinase (P15056 with tags, fused parts or gaps V600E): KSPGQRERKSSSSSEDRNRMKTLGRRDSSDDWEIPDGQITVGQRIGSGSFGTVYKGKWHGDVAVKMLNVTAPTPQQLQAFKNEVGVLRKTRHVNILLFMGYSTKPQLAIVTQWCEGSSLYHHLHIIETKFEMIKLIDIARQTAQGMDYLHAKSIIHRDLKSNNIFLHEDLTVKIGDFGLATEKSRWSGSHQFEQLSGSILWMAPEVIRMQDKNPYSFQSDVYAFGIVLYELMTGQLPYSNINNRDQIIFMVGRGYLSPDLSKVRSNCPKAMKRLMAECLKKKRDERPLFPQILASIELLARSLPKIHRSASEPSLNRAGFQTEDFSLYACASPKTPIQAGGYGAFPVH
Chain of phosphorylated p-38-alpha kinase (Q16539 1-360 isoform Q16539-2): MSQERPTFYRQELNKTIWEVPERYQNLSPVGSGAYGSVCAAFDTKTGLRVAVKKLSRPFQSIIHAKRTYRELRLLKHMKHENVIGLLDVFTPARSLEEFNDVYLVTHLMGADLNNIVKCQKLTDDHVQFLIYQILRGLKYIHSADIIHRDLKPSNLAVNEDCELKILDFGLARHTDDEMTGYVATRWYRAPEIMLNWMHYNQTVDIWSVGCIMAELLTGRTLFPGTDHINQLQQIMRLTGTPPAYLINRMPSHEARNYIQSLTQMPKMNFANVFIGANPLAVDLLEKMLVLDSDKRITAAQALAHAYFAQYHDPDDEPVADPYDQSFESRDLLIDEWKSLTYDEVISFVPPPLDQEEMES
Chain of KDR kinase (P35968 with tags, fused parts or gaps DEL940-989/E990V): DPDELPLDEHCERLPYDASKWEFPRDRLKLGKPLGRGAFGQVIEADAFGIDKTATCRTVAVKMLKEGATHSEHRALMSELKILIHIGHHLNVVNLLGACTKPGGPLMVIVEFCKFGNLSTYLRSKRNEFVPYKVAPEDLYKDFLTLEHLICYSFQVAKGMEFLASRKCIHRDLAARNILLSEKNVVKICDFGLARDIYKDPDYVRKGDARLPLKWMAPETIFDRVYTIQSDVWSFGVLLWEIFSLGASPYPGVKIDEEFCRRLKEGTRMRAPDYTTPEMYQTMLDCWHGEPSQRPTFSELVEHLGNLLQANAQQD

Take `O=C(O)Cc1cccc(-n2nc(-c3ccc(F)cc3)cc2NC(=O)Nc2cccc(Cl)c2Cl)c1` [Example 431, 2-(3-(5-(3-(2,3-dichlorophenyl)ureido)-3-(4-fluorophenyl)-1H-pyrazol-1-yl)phenyl)acetic acid]: in assay [1] (setting [6]), the inhibition at 10 µM was found to be 29%.

Turning to `CCOC(=O)Cc1ccc(-n2nc(C3CCCC3)cc2NC(=O)Nc2cccc(Cl)c2Cl)cc1` [Example 437, ethyl 2-(4-(3-cyclopentyl-5-(3-(2,3-dichlorophenyl)ureido)-1H-pyrazol-1-yl)phenyl)acetate], the IC50 in assay [2] stood at 0.16 µM. For the same compound, the inhibition at 10 µM in assay [3] (setting [7]) was 32%; in assay [1] (setting [6]) it was 21%.

On to `O=C(O)Cc1ccc(-n2nc(-c3cccs3)cc2NC(=O)Nc2cccc(Cl)c2Cl)cc1` [Example 442, 2-(4-(5-(3-(2,3-dichlorophenyl)ureido)-3-(thiophen-2-yl)-1H-pyrazol-1-yl)phenyl)acetic acid], for which the IC50 in assay [4] was 3.01 µM. Further, the inhibition at 1 µM in assay [2] (setting [8]) worked out at 24%. The inhibition at 10 µM in assay [3] (setting [7]) was found to be 25%.

On to `CC(C(=O)O)c1ccc(-n2nc(-c3cccs3)cc2NC(=O)Nc2cccc(Cl)c2Cl)cc1` (stereo not drawn) [Example 443, 2-(4-(5-(3-(2,3-dichlorophenyl)ureido)-3-(thiophen-2-yl)-1H-pyrazol-1-yl)phenyl)propanoic acid], for which the IC50 in assay [5] was found to be 0.03 µM. In assay [2] (setting [8]), the inhibition at 1 µM was determined as 20%. Moreover, the inhibition at 10 µM in assay [3] (setting [7]) stood at 33%.

Take `COC(=O)Cc1ccc(-n2nc(-c3ccsc3)cc2NC(=O)Nc2cccc(Cl)c2Cl)cc1` [Example 445, methyl 2-(4-(5-(3-(2,3-dichlorophenyl)ureido)-3-(thiophen-3-yl)-1H-pyrazol-1-yl)phenyl)acetate]: in assay [2] (setting [8]), the inhibition at 1 µM was found to be 39%. Further, the inhibition at 10 µM in assay [1] (setting [6]) was 30%.

In the case of `NC(=O)Cc1cccc(-n2nc(-c3ccsc3)cc2NC(=O)Nc2cccc(Cl)c2Cl)c1` [Example 452, 1-(1-(3-(2-amino-2-oxoethyl)phenyl)-3-(thiophen-3-yl)-1H-pyrazol-5-yl)-3-(2,3-dichlorophenyl)urea], in assay [5], the IC50 amounted to 0.006 µM. In addition, the inhibition at 1 µM in assay [2] (setting [8]) is 45%. Besides, in assay [1] (setting [6]), the inhibition at 10 µM was determined as 37%.

Regarding `O=C(Cc1cccc(-n2nc(-c3ccccc3F)cc2NC(=O)Nc2cccc(Cl)c2Cl)c1)NCCO` [Example 456, 1-(2,3-dichlorophenyl)-3-(3-(2-fluorophenyl)-1-(3-(2-(2-hydroxyethylamino)-2-oxoethyl)phenyl)-1H-pyrazol-5-yl)urea], the IC50 worked out at 0.015 µM in assay [5] and 0.04 µM in assay [4]. The inhibition at 10 µM in assay [3] (setting [7]) turned out to be 53%.

Consider `O=C(Cc1cccc(-n2nc(-c3cccs3)cc2NC(=O)Nc2cccc(Cl)c2Cl)c1)NCCO` [Example 457, 1-(2,3-dichlorophenyl)-3-(1-(3-(2-(2-hydroxyethylamino)-2-oxoethyl)phenyl)-3-(thiophen-2-yl)-1H-pyrazol-5-yl)urea], for which the values for the IC50 in assay [5] and in assay [4] were 0.008 µM and 1.1 µM, respectively. Besides, the inhibition at 10 µM in assay [3] (setting [7]) was 31%.

Turning to `O=C(Cc1cccc(-n2nc(-c3cccs3)cc2NC(=O)Nc2cccc(Cl)c2Cl)c1)NCC(O)CO` (stereo not drawn) [Example 460, 1-(2,3-dichlorophenyl)-3-(1-(3-(2-(2,3-dihydroxypropylamino)-2-oxoethyl)phenyl)-3-(thiophen-2-yl)-1H-pyrazol-5-yl)urea], the IC50 came out at 0.008 µM in assay [5] and 2.4 µM in assay [2]. In assay [3] (setting [7]), the inhibition at 10 µM is 26%.

Regarding `O=C(Cc1cccc(-n2nc(-c3ccccc3F)cc2NC(=O)Nc2cccc(Cl)c2Cl)c1)NC(CO)CO` [Example 461, 1-(2,3-dichlorophenyl)-3-(1-(3-(2-(1,3-dihydroxypropan-2-ylamino)-2-oxoethyl)phenyl)-3-(2-fluorophenyl)-1H-pyrazol-5-yl)urea], the results for the IC50 in assay [5] and in assay [4] were 0.03 µM and 0.017 µM, respectively. Moreover, the inhibition at 10 µM in assay [2] (setting [8]) turned out to be 28%; in assay [3] (setting [7]) it was 33%.

As for `O=C(Cc1cccc(-n2nc(-c3cccs3)cc2NC(=O)Nc2cccc(Cl)c2Cl)c1)NC(CO)CO` [Example 462, 1-(2,3-dichlorophenyl)-3-(1-(3-(2-(1,3-dihydroxypropan-2-ylamino)-2-oxoethyl)phenyl)-3-(thiophen-2-yl)-1H-pyrazol-5-yl)urea], the IC50 in assay [5] was 0.008 µM. Moreover, in assay [2] (setting [8]), the inhibition at 1 µM is 43%. Moreover, the inhibition at 10 µM in assay [3] (setting [7]) turned out to be 25%.

As to `CN(C)[C@@H]1CCN(C(=O)Cc2cccc(-n3nc(C(C)(C)C)cc3NC(=O)Nc3cccc(Cl)c3Cl)c2)C1` [Example 464, 1-(3-tert-butyl-1-(3-(2-((R)-3-(dimethylamino)pyrrolidin-1-yl)-2-oxoethyl)phenyl)-1H-pyrazol-5-yl)-3-(2,3-dichlorophenyl)urea], the inhibition at 10 µM in assay [3] (setting [8]) worked out at 85%; in assay [1] (setting [8]) it was 82%.

On to `CN(C)[C@H]1CCN(C(=O)Cc2cccc(-n3nc(C(C)(C)C)cc3NC(=O)Nc3cccc(Cl)c3Cl)c2)C1` [Example 465, 1-(3-tert-butyl-1-(3-(2-((S)-3-(dimethylamino)pyrrolidin-1-yl)-2-oxoethyl)phenyl)-1H-pyrazol-5-yl)-3-(2,3-dichlorophenyl)urea], for which the inhibition at 10 µM in assay [3] (setting [8]) came out at 91%. The IC50 in assay [1] turned out to be 1.2 µM.

`NC(=O)Cc1ccc(-n2nc(-c3ccsc3)cc2NC(=O)Nc2cccc(Cl)c2Cl)cc1` [Example 469, 1-(1-(4-(2-amino-2-oxoethyl)phenyl)-3-(thiophen-3-yl)-1H-pyrazol-5-yl)-3-(2,3-dichlorophenyl)urea] had an IC50 in assay [5] of 0.009 µM. In addition, in assay [2] (setting [8]), the inhibition at 1 µM came to 43%. The inhibition at 10 µM in assay [1] (setting [6]) was determined as 22%.

For `O=C(Cc1ccc(-n2nc(-c3ccccc3)cc2NC(=O)Nc2cccc(Cl)c2Cl)cc1)NCCO` [Example 470, 1-(2,3-dichlorophenyl)-3-(1-(4-(2-(2-hydroxyethylamino)-2-oxoethyl)phenyl)-3-phenyl-1H-pyrazol-5-yl)urea], the IC50 in assay [4] came out at 0.005 µM. The inhibition at 10 µM in assay [1] (setting [6]) amounted to 15%.

Take `CC(C)(C)c1cc(NC(=O)Nc2cccc(Cl)c2Cl)n(-c2ccc(CC(=O)N3CCCC(C(=O)O)C3)cc2)n1` (stereo not drawn) [Example 476, 1-(2-(4-(3-tert-butyl-5-(3-(2,3-dichlorophenyl)ureido)-1H-pyrazol-1-yl)phenyl)acetyl)piperidine-3-carboxylic acid]: the IC50 in assay [5] amounted to 0.006 µM; in assay [4], 0.024 µM; in assay [2] it was 0.041 µM; in assay [1] (setting [9]), 8.4 µM.

For the compound `O=C(Nc1cccc(Cl)c1Cl)Nc1cc(-c2ccccc2)nn1-c1cccc(CO)c1` [Example 484, 1-(2,3-dichlorophenyl)-3-(1-(3-(hydroxymethyl)phenyl)-3-phenyl-1H-pyraol-5-yl)urea], the IC50 turned out to be 0.009 µM in assay [5] and 7.4 µM in assay [2]. Further, the inhibition at 10 µM in assay [3] (setting [7]) stood at 37%.

Turning to `O=C(Nc1ccc(F)c(F)c1F)Nc1cc(-c2cccs2)nn1-c1cccc(CO)c1` [Example 493, 1-(1-(3-(hydroxymethyl)phenyl)-3-(thiophen-2-yl)-1H-pyrazol-5-yl)-3-(2,3,4-trifluorophenyl)urea], the “% @ concentration, uM” value in assay [4] (@ 1 uM) is recorded as 36%; in assay [4] (@ 10 uM), 73%. Moreover, the inhibition at 10 µM in assay [3] (setting [7]) was 82%. The inhibition at 1 µM in assay [1] (read-out: Results, % @ concentration μM, Method A1, @ 1 μM) came out at 17%.

In the case of `CC(C)(C)c1cc(NC(=O)Nc2cccc(F)c2F)n(-c2cccc(CC(N)=O)c2)n1` [Example 495, 1-(1-(3-(2-amino-2-oxoethyl)phenyl)-3-tert-butyl-1H-pyrazol-5-yl)-3-(2,3-difluorophenyl)urea], the IC50 in assay [5] was 0.038 µM; in assay [4], 0.25 µM; in assay [2], 0.009 µM; in assay [1] (setting [9]) it was 7.6 µM.

For the compound `NC(=O)Cc1cccc(-n2nc(-c3ccccc3)cc2NC(=O)Nc2cccc(Oc3cccnc3)c2)c1` [Example 501, 1-(1-(3-(2-amino-2-oxoethyl)phenyl)-3-phenyl-1H-pyrazol-5-yl)-3-(3-(pyridin-3-yloxy)phenyl)urea], the IC50 in assay [5] turned out to be 0.076 µM; in assay [3] (Method K1), 1.6 µM; in assay [1] (setting [9]), 2.5 µM.

On to `CC(C)(C)c1cc(NC(=O)Nc2cccc(-c3cccnc3)c2)n(-c2cccc(CC(N)=O)c2)n1` [Example 507, 1-(1-(3-(2-amino-2-oxoethyl)phenyl)-3-tert-butyl-1H-pyrazol-5-yl)-3-(3-(pyridin-3-yl)phenyl)urea], for which the IC50 in assay [5] is 0.18 µM; in assay [4], 0.007 µM; in assay [2], 0.035 µM; in assay [1] (setting [9]), 23.3 µM.

Take `CC(C)(C)c1cc(NC(=O)Nc2cccc(-c3ccc(N)nc3)c2)n(-c2cccc(CC(N)=O)c2)n1` [Example 508, 1-(1-(3-(2-amino-2-oxoethyl)phenyl)-3-tert-butyl-1H-pyrazol-5-yl)-3-(3-(6-aminopyridin-3-yl)phenyl)urea]: the IC50 in assay [5] stood at 0.33 µM; in assay [4], 0.052 µM; in assay [2], 0.02 µM. Also, the inhibition at 10 µM in assay [1] (setting [6]) was found to be 32%.
